Results as given in patent US10106534B2 (CELGENE QUANTICEL RESEARCH, INC., priority 2014, dated 2018).

Key:
[1] = target: JMJD2C (Homo sapiens (Human), UniProt Q9H3R0); assay: In vitro enzyme inhibition assay for JMJD2C activity (TR-FRET); type: biochemical
Procedure, shortened: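 Demethylation product H3K9me2 quantified by TR-FRET ratio 665/615 after EDTA stop and 1 h with Eu-anti-H3K9me2 and streptavidin-APC; IC50 by curve fit. Reaction: 0.3 nM JMJD2C (AA 2-372, baculovirus), 2 μM α-ketoglutarate, 300 nM biotin-H3K9me3 peptide, pH 7.3 HEPES with Fe(II)/ascorbate, 30 min room temperature.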

[2] = target: JMJD3 (Homo sapiens, UniProt O15054); assay: In vitro enzyme inhibition assay for JMJD3 activity (TR-FRET); type: biochemical
Experimental: This assay determines the ability of a test compound to inhibit JMJD3 demethylase activity.
The enzymatic assay of JMJD3 activity is based upon Time Resolved-Fluorescence Resonance Energy Transfer (TR-FRET) detection. […] Reaction product was determined quantitatively by TR-FRET after the addition of detection reagent Phycolink Streptavidin-allophycocyanin (Prozyme) and Europium-anti-di-methylated histone H3 lysine 27 (H3K27me2) antibody (PerkinElmer) in the presence of 5 mM EDTA in LANCE detection buffer (PerkinElmer) at a final concentration of 50 nM and 1 nM, respectively.
The reaction mixture was incubated at room temperature for 30 minutes, and terminated by the addition of 6 μL of 5 mM EDTA in LANCE detection buffer containing 100 nM Phycolink Streptavidin-allophycocyanin and 2 nM Europium-anti-H3K27me2 antibody.

[3] = system: KYSE-150 esophageal carcinoma cell line; assay: In vitro cell-based assay: cellular proliferation via BrdU incorporation (ELISA); set-up: species or system human; conditions: Homo sapiens, KYSE-150, 168 hours compound incubation
Procedure, shortened: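 BrdU incorporation during S-phase, detected colorimetrically at 450 nm by peroxidase ELISA, measured proliferation after 168 h compound exposure.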

Chain of JMJD2C (Q9H3R0 2-372): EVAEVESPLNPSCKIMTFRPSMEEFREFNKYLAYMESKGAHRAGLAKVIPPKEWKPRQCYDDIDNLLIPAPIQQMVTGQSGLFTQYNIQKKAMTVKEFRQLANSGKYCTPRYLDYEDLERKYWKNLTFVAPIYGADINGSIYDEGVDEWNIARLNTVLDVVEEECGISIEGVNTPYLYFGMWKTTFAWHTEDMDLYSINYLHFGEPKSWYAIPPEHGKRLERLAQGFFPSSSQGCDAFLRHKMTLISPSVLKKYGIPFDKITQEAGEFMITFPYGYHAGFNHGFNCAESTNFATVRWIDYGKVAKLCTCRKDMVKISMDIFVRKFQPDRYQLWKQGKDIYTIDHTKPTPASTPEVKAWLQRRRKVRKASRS

IC50 [1]	IC50 [2]	IC50 [3]	fold more potent for JMJD3 than the R-enantiomer ([2]; S-enantiomer vs R-enantiomer)	Compound
0.1 to 1 µM	1 to 10 µM	≤ 0.1 µM		CN(c1ccc2c(c1)CCC[C@H]2CNc1cnccc1C(=O)O)c1ccccn1 [Example 11, 3-({[(1R)-6-[methyl(pyridin-2-yl)amino]-1,2,3,4-tetrahydronaphthalen-1-yl]methyl}amino)pyridine-4-carboxylic acid]
0.1 to 1 µM	1 to 10 µM	0.1 to 1 µM		O=C(O)c1ccncc1NCC1CCOc2cc(N3CCCc4ccccc43)ccc21 (stereo not drawn) [Example 16, 3-({[7-(1,2,3,4-tetrahydroquinolin-1-yl)-3,4-dihydro-2H-1-benzopyran-4-yl]methyl}amino)pyridine-4-carboxylic acid]
0.1 to 1 µM	1 to 10 µM	0.1 to 1 µM		O=C(O)c1ccncc1NCC1CCOc2cc(N3CCc4ccccc43)ccc21 (stereo not drawn) [Example 17, 3-({[7-(2,3-dihydro-1H-indol-1-yl)-3,4-dihydro-2H-1-benzopyran-4-yl]methyl}amino)pyridine-4-carboxylic acid]
0.1 to 1 µM	0.1 to 1 µM	≤ 0.1 µM		CN(c1ccccc1)c1ccc2c(c1)OCC[C@H]2CNc1cnccc1C(=O)O [Example 18, 3-({[(4R)-7-[methyl(phenyl)amino]-3,4-dihydro-2H-1-benzopyran-4-yl]methyl}amino)pyridine-4-carboxylic acid]
0.1 to 1 µM	1 to 10 µM	≤ 0.1 µM		CN(c1cccc(F)c1)c1ccc2c(c1)OCC[C@H]2CNc1cnccc1C(=O)O [Example 20, 3-({[(4R)-7-[(3-fluorophenyl)(methyl)amino]-3,4-dihydro-2H-1-benzopyran-4-yl]methyl}amino)pyridine-4-carboxylic acid]
0.1 to 1 µM	1 to 10 µM	≤ 0.1 µM		CN(c1ccc(F)cc1)c1ccc2c(c1)OCC[C@H]2CNc1cnccc1C(=O)O [Example 21, 3-({[(4R)-7-[(4-fluorophenyl)(methyl)amino]-3,4-dihydro-2H-1-benzopyran-4-yl]methyl}amino)pyridine-4-carboxylic acid]
0.1 to 1 µM	1 to 10 µM	≤ 0.1 µM		Cc1ccc(N(C)c2ccc3c(c2)OCC[C@H]3CNc2cnccc2C(=O)O)cc1 [Example 22, 3-({[(4R)-7-[methyl(4-methylphenyl)amino]-3,4-dihydro-2H-1-benzopyran-4-yl]methyl}amino)pyridine-4-carboxylic acid]
1 to 10 µM	0.1 to 1 µM			Cc1cccc(-c2ccc3c(c2)OCC[C@@H]3CNc2cnccc2C(=O)O)c1 [Example 29, 3-({[(4S)-7-(3-methylphenyl)-3,4-dihydro-2H-1-benzopyran-4-yl]methyl}amino)pyridine-4-carboxylic acid]
1 to 10 µM	0.1 to 1 µM			Cc1ccc(-c2ccc3c(c2)OCC[C@@H]3CNc2cnccc2C(=O)O)cc1 [Example 31, 3-({[(4S)-7-(4-methylphenyl)-3,4-dihydro-2H-1-benzopyran-4-yl]methyl}amino)pyridine-4-carboxylic acid]
1 to 10 µM	< 0.1 µM			O=C(O)c1ccncc1NC[C@H]1CCOc2cc(-c3ccsc3)ccc21 [Example 33, 3-({[(4S)-7-(thiophen-3-yl)-3,4-dihydro-2H-1-benzopyran-4-yl]methyl}amino)pyridine-4-carboxylic acid]
1 to 10 µM	0.1 to 1 µM			Cc1sccc1-c1ccc2c(c1)OCC[C@@H]2CNc1cnccc1C(=O)O [Example 36, 3-({[(4S)-7-(2-methylthiophen-3-yl)-3,4-dihydro-2H-1-benzopyran-4-yl]methyl}amino)pyridine-4-carboxylic acid]
1 to 10 µM	0.1 to 1 µM			O=C(O)c1ccncc1NC[C@H]1CCOc2cc(-c3ccccc3Cl)ccc21 [Example 39, 3-({[(4S)-7-(2-chlorophenyl)-3,4-dihydro-2H-1-benzopyran-4-yl]methyl}amino)pyridine-4-carboxylic acid]
1 to 10 µM	0.1 to 1 µM			O=C(O)c1ccncc1NC[C@H]1CCOc2cc(Sc3cccc(F)c3)ccc21 [Example 52, 3-({[(4S)-7-[(3-fluorophenyl)sulfanyl]-3,4-dihydro-2H-1-benzopyran-4-yl]methyl}amino)pyridine-4-carboxylic acid]
1 to 10 µM	0.1 to 1 µM			O=C(O)c1ccncc1NC[C@H]1CCOc2cc(Sc3ccc(F)cc3)ccc21 [Example 54, 3-({[(4S)-7-[(4-fluorophenyl)sulfanyl]-3,4-dihydro-2H-1-benzopyran-4-yl]methyl}amino)pyridine-4-carboxylic acid]
			> 100 fold	O=C(O)c1ccncc1NC[C@H]1CCOc2cc(-c3ccccc3)ccc21 [Example 83 of U.S. Pat. No. 8,952,151, 3-({[(4S)-7-phenyl-3,4-dihydro-2H-1-benzopyran-4-yl]methyl}amino)pyridine-4-carboxylic acid, reference compound]
0.1 to 1 µM	1 to 10 µM			O=C(O)c1ccncc1NC[C@@H]1CCOc2cc(-c3ccccc3O)ccc21 [Example 138, 3-({[(4R)-7-(2-hydroxyphenyl)-3,4-dihydro-2H-1-benzopyran-4-yl]methyl}amino)pyridine-4-carboxylic acid]
0.1 to 1 µM	1 to 10 µM			CN(c1ccc(OC(F)(F)F)cc1)c1ccc2c(c1)OCC[C@H]2CNc1cnccc1C(=O)O [Example 182, 3-({[(4R)-7-{methyl[4-(trifluoromethoxy)phenyl]amino}-3,4-dihydro-2H-1-benzopyran-4-yl]methyl}amino)pyridine-4-carboxylic acid]
0.1 to 1 µM		0.1 to 1 µM		CN(c1ccc(CCO)cc1)c1ccc2c(c1)OCC[C@H]2CNc1cnccc1C(=O)O [Example 207, 3-({[(4R)-7-{[4-(2-hydroxyethyl)phenyl](methyl)amino}-3,4-dihydro-2H-1-benzopyran-4-yl]methyl}amino)pyridine-4-carboxylic acid]
1 to 10 µM		≤ 0.1 µM		CCCc1ccc(N(C)c2ccc3c(c2)OCC[C@H]3CNc2cnccc2C(=O)O)cc1 [Example 208, 3-({[(4R)-7-[methyl(4-propylphenyl)amino]-3,4-dihydro-2H-1-benzopyran-4-yl]methyl}amino)pyridine-4-carboxylic acid]
0.1 to 1 µM		≤ 0.1 µM		CC(C)Oc1ccc(N(C)c2ccc3c(c2)OCC[C@H]3CNc2cnccc2C(=O)O)cc1 [Example 210, 3-({[(4R)-7-{methyl[4-(propan-2-yloxy)phenyl]amino}-3,4-dihydro-2H-1-benzopyran-4-yl]methyl}amino)pyridine-4-carboxylic acid]
0.1 to 1 µM		≤ 0.1 µM		CN(c1ccc(OCC2CC2)cc1)c1ccc2c(c1)OCC[C@H]2CNc1cnccc1C(=O)O [Example 211, 3-({[(4R)-7-{[4-(cyclopropylmethoxy)phenyl](methyl)amino}-3,4-dihydro-2H-1-benzopyran-4-yl]methyl}amino)pyridine-4-carboxylic acid]
0.1 to 1 µM		≤ 0.1 µM		CCCOc1ccc(N(C)c2ccc3c(c2)OCC[C@H]3CNc2cnccc2C(=O)O)cc1 [Example 212, 3-({[(4R)-7-[methyl(4-propoxyphenyl)amino]-3,4-dihydro-2H-1-benzopyran-4-yl]methyl}amino)pyridine-4-carboxylic acid]
0.1 to 1 µM		≤ 0.1 µM		CN(c1ccc(OC2CC2)cc1)c1ccc2c(c1)OCC[C@H]2CNc1cnccc1C(=O)O [Example 213, 3-({[(4R)-7-[(4-cyclopropoxyphenyl)(methyl)amino]-3,4-dihydro-2H-1-benzopyran-4-yl]methyl}amino)pyridine-4-carboxylic acid]
0.1 to 1 µM		≤ 0.1 µM		CN(c1ccc(OCC(F)(F)F)cc1)c1ccc2c(c1)OCC[C@H]2CNc1cnccc1C(=O)O [Example 214, 3-({[(4R)-7-{methyl[4-(2,2,2-trifluoroethoxy)phenyl]amino}-3,4-dihydro-2H-1-benzopyran-4-yl]methyl}amino)pyridine-4-carboxylic acid]

Compound	IC50 [1]	IC50 [2]	IC50 [3]	fold more potent for JMJD3 than the R-enantiomer ([2]; S-enantiomer vs R-enantiomer)
3-({[(1R)-6-[benzyl(methyl)amino]-1,2,3,4-tetrahydronaphthalen-1-yl]methyl}amino)pyridine-4-carboxylic acid [Example 130]	0.1 to 1 µM	1 to 10 µM		
CN(c1ccccc1)c1ccc2c(c1)CCCC2CNc1cnccc1C(=O)O (stereo in doubt) [Example 2, 3-({[(1S)-6-[methyl(phenyl)amino]-1,2,3,4-tetrahydronaphthalen-1-yl]methyl}amino)pyridine-4-carboxylic acid]	0.1 to 1 µM	1 to 10 µM		
CN(c1ccccc1)c1ccc2c(c1)CCC[C@@H]2CNc1cnccc1C(=O)O [Example 1, 3-({[(1S)-6-[methyl(phenyl)amino]-1,2,3,4-tetrahydronaphthalen-1-yl]methyl}amino)pyridine-4-carboxylic acid]	1 to 10 µM	1 to 10 µM		
